Results taken from the kinase profiling compilation of Christmann-Franck et al. (2016).

Assays:
Experiment in all cases: KINOMEscan competition binding
Conditions in all cases: compound 10.0 µM
ALK (human) = ALK (human) (UniProt Q9UM73)
EPHA8 (human) = EPHA8 (human) (UniProt P29322)
BMPR2 (human) = BMPR2 (human) (UniProt Q13873)
PIP5K1A (human) = PIP5K1A (human) (UniProt Q99755)
ACVR2B (human) = ACVR2B (human) (UniProt Q13705)
PIP4K2B (human) = PIP4K2B (human) (UniProt P78356)
MAP3K12 (human) = MAP3K12 (human) (UniProt Q12852)
STK16 (human) = STK16 (human) (UniProt O75716)
FGFR3 (human) = FGFR3 (human) (UniProt P22607)
CLK1 (human) = CLK1 (human) (UniProt P49759)
MAPK12 (human) = MAPK12 (human) (UniProt P53778)
RPS6KA3 KD1 (human) = RPS6KA3 KD1 (human) (UniProt P51812)
MAP3K13 (human) = MAP3K13 (human) (UniProt O43283)
PRKD1 (human) = PRKD1 (human) (UniProt Q15139)
EPHB2 (human) = EPHB2 (human) (UniProt P29323)
HUNK (human) = HUNK (human) (UniProt P57058)
MAP4K5 (human) = MAP4K5 (human) (UniProt Q9Y4K4)
SGK110 (human) = SGK110 (human) (UniProt P0C264)
CSNK1A1L (human) = CSNK1A1L (human) (UniProt Q8N752)
[1] = target: TYK2 JH1 catalytic (human) (UniProt P29597)
MAPK10 (human) = MAPK10 (human) (UniProt P53779)
TESK1 (human) = TESK1 (human) (UniProt Q15569)
TBK1 (human) = TBK1 (human) (UniProt Q9UHD2)
MST4 (human) = MST4 (human) (UniProt Q9P289)
PLK3 (human) = PLK3 (human) (UniProt Q9H4B4)
PRKAA1 (human) = PRKAA1 (human) (UniProt Q13131)
[2] = tested on: EGFR (human), P00533 [T790M/L858R]
EPHB6 (human) = EPHB6 (human) (UniProt O15197)
DAPK2 (human) = DAPK2 (human) (UniProt Q9UIK4)
PAK4 (human) = PAK4 (human) (UniProt O96013)
PRKD2 (human) = PRKD2 (human) (UniProt Q9BZL6)
STK32A (human) = STK32A (human) (UniProt Q8WU08)
CDKL1 (human) = CDKL1 (human) (UniProt Q00532)
CDK3 (human) = CDK3 (human) (UniProt Q00526)
ICK (human) = ICK (human) (UniProt Q9UPZ9)
RIPK2 (human) = RIPK2 (human) (UniProt O43353)
DCLK3 (human) = DCLK3 (human) (UniProt Q9C098)
HIPK3 (human) = HIPK3 (human) (UniProt Q9H422)
NEK9 (human) = NEK9 (human) (UniProt Q8TD19)
LRRK2 (human) = LRRK2 (human) (UniProt Q5S007)

PIP4K2B (human), sequence (P78356 whole entry, looked up): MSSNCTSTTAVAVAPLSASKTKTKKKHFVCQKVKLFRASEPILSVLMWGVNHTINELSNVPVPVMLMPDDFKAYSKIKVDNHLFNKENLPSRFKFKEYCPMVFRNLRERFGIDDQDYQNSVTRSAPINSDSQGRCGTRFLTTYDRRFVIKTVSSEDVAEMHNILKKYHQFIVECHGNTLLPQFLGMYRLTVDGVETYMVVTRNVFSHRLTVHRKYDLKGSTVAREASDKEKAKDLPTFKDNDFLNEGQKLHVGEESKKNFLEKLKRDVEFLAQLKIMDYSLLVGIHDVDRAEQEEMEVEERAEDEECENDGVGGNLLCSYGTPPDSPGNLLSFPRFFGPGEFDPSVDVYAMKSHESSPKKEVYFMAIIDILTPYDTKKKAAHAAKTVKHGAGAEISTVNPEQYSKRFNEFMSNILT
RPS6KA3 KD1 (human), sequence (P51812 whole entry, looked up): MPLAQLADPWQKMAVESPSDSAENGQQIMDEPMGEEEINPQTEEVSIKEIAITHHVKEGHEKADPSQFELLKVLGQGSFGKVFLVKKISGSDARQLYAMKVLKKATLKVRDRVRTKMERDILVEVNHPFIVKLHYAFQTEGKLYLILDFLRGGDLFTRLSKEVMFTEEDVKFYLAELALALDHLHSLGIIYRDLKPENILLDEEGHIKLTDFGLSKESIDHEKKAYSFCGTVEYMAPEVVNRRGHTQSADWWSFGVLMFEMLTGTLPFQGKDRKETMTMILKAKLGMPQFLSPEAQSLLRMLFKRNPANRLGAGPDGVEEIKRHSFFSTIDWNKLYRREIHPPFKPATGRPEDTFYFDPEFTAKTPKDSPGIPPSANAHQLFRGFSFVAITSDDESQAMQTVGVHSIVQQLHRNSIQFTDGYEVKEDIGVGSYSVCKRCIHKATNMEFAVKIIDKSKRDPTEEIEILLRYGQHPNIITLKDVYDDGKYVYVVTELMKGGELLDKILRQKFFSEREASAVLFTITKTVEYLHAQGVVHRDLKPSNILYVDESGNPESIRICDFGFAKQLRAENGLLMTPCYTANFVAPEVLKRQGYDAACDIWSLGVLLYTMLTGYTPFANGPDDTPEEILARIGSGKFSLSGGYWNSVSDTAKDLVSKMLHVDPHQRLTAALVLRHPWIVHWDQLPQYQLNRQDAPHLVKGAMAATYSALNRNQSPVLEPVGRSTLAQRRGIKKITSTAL
ICK (human), sequence (Q9UPZ9 whole entry, looked up): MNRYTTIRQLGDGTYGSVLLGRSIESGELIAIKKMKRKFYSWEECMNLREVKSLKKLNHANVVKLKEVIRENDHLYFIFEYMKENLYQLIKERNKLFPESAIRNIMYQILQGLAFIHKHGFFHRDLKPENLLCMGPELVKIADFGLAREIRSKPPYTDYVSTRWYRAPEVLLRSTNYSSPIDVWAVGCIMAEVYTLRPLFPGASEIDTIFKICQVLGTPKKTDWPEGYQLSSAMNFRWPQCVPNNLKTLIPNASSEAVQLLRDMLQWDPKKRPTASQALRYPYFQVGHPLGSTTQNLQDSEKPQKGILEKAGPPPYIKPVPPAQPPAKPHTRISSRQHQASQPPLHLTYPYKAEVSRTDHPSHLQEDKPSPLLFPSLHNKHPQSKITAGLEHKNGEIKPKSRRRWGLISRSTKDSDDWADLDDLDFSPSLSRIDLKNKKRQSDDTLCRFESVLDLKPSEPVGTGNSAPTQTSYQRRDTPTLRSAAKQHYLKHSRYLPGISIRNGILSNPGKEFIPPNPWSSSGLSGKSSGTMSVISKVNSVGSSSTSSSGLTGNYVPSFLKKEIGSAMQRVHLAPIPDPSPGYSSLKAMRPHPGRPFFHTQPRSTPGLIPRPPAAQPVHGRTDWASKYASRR
SGK110 (human), sequence (P0C264 whole entry, looked up): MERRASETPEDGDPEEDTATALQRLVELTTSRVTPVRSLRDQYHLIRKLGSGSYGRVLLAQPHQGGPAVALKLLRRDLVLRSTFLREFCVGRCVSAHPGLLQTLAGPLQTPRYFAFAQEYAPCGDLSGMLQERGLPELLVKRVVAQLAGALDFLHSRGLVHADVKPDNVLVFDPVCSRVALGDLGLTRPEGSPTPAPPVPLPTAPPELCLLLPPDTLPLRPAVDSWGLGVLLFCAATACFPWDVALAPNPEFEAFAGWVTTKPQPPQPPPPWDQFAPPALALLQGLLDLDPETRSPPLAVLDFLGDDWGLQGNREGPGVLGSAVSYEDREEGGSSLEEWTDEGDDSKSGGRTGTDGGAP
DCLK3 (human), sequence (Q9C098 whole entry, looked up): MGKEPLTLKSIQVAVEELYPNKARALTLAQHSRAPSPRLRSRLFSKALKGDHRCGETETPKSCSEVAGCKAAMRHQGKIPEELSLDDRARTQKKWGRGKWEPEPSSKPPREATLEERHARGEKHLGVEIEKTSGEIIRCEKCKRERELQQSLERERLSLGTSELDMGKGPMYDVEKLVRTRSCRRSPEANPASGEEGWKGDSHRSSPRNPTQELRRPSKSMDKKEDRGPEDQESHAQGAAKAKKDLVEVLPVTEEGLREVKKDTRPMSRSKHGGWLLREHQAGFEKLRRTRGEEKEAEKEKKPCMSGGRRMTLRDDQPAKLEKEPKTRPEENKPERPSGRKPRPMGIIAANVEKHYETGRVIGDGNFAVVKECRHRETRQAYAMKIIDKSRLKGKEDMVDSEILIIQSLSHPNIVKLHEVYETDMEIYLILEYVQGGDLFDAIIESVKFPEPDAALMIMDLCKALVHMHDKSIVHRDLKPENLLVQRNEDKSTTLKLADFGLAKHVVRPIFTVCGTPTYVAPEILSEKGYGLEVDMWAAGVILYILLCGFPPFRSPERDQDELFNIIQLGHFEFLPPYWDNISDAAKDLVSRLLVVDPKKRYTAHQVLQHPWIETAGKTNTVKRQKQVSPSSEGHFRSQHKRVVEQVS
PRKD2 (human), sequence (Q9BZL6 whole entry, looked up): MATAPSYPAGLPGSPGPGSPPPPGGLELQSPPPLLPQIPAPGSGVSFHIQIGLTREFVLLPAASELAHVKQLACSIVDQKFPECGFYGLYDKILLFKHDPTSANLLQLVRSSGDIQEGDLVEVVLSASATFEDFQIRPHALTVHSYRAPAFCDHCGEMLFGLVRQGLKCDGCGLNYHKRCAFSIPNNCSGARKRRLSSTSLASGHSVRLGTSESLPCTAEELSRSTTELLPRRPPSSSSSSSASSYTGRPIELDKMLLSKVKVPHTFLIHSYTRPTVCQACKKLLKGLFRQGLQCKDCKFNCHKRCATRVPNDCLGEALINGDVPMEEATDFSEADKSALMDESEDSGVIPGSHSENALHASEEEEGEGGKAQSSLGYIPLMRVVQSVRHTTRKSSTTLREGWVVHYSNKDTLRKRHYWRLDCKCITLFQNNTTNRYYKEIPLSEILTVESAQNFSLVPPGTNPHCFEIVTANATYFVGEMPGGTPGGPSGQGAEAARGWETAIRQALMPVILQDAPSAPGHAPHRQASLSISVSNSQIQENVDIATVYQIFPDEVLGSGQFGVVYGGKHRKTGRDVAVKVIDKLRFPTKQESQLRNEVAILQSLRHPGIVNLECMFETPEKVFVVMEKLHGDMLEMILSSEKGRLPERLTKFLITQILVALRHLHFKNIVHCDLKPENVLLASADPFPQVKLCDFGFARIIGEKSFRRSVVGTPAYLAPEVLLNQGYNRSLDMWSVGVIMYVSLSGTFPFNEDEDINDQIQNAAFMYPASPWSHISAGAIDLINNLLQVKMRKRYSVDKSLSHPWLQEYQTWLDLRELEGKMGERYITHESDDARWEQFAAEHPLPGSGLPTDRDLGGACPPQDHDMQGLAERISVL
TYK2 JH1 catalytic (human), sequence (P29597 whole entry, looked up): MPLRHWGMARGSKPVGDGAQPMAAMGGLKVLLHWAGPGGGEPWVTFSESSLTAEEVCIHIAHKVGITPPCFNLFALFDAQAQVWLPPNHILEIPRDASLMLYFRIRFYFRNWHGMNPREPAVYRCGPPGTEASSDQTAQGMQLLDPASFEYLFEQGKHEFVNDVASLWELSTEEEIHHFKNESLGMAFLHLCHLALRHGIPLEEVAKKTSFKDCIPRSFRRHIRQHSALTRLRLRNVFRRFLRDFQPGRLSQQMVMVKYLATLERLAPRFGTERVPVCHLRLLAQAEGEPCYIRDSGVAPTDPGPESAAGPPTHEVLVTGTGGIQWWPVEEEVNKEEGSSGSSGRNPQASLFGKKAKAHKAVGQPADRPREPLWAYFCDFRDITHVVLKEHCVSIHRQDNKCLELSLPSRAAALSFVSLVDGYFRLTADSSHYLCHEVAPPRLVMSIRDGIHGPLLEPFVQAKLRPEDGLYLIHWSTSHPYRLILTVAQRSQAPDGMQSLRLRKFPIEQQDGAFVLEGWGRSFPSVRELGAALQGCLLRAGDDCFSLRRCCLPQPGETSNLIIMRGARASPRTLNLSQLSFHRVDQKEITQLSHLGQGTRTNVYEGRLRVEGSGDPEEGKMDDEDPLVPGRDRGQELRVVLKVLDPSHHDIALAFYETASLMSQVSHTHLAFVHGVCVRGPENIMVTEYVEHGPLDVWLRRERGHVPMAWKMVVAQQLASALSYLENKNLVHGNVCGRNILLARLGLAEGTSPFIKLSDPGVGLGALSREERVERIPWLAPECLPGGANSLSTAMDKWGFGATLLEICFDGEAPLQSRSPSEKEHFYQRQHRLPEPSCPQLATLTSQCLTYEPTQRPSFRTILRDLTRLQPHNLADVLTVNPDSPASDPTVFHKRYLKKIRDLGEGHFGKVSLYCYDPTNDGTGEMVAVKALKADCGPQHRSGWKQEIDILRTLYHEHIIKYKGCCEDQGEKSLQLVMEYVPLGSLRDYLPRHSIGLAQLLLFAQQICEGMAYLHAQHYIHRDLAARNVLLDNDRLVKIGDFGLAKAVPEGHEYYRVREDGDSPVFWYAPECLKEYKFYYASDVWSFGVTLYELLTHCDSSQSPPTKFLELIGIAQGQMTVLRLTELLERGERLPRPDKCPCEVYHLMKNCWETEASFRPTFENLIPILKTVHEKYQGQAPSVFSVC

| SMILES | kinase still bound, per cent of control (ALK (human)) | kinase still bound, per cent of control (EPHA8 (human)) | kinase still bound, per cent of control (BMPR2 (human)) | kinase still bound, per cent of control (PIP5K1A (human)) | kinase still bound, per cent of control (ACVR2B (human)) | kinase still bound, per cent of control (PIP4K2B (human)) | kinase still bound, per cent of control (MAP3K12 (human)) | kinase still bound, per cent of control (STK16 (human)) | kinase still bound, per cent of control (FGFR3 (human)) | kinase still bound, per cent of control (CLK1 (human)) | kinase still bound, per cent of control (MAPK12 (human)) | kinase still bound, per cent of control (RPS6KA3 KD1 (human)) | kinase still bound, per cent of control (MAP3K13 (human)) | kinase still bound, per cent of control (PRKD1 (human)) | kinase still bound, per cent of control (EPHB2 (human)) | kinase still bound, per cent of control (HUNK (human)) | kinase still bound, per cent of control (MAP4K5 (human)) | kinase still bound, per cent of control (SGK110 (human)) | kinase still bound, per cent of control (CSNK1A1L (human)) | kinase still bound, per cent of control [1] | other results |
| --- | --- | --- | --- | --- | --- | --- | --- | --- | --- | --- | --- | --- | --- | --- | --- | --- | --- | --- | --- | --- | --- |
| COc1cc2ncnc(-n3nc(-c4ccccn4)nc3N)c2cc1OC | 45% | 59% | 88% | 6.4% | 49% | 44% | 52% | 2.8% | 84% | 0.6% | 21% | 2.8% | 96% | 88% | 47% | 41% | 45% | 100% | 32% | 22% | kinase still bound, per cent of control (MAPK10 (human)): 1.4%; kinase still bound, per cent of control (TESK1 (human)): 100%; kinase still bound, per cent of control (TBK1 (human)): 24%; kinase still bound, per cent of control (MST4 (human)): 68%; kinase still bound, per cent of control (PLK3 (human)): 33%; kinase still bound, per cent of control (PRKAA1 (human)): 19%; kinase still bound, per cent of control [2]: 84%; kinase still bound, per cent of control (EPHB6 (human)): 2.2%; kinase still bound, per cent of control (DAPK2 (human)): 12%; kinase still bound, per cent of control (PAK4 (human)): 72%; kinase still bound, per cent of control (PRKD2 (human)): 65%; kinase still bound, per cent of control (STK32A (human)): 64%; kinase still bound, per cent of control (CDKL1 (human)): 21%; kinase still bound, per cent of control (CDK3 (human)): 82%; kinase still bound, per cent of control (ICK (human)): 47%; kinase still bound, per cent of control (RIPK2 (human)): 2.6%; kinase still bound, per cent of control (DCLK3 (human)): 100%; kinase still bound, per cent of control (HIPK3 (human)): 0%; kinase still bound, per cent of control (NEK9 (human)): 2.2%; kinase still bound, per cent of control (LRRK2 (human)): 41% |
| NC(=O)Nc1cc(-c2cccc(F)c2)sc1C(=O)N[C@@H]1CCCNC1 | 0.05% | 0.4% | 3.4% | 0% | 3.8% | 0.2% | 9.7% | 21% | 16% | 1.2% | 89% | 0.95% | 7% | 0.3% | 9.6% | 68% | 0.4% | 0% | 2.4% | 0% | kinase still bound, per cent of control (MAPK10 (human)): 63%; kinase still bound, per cent of control (TESK1 (human)): 11%; kinase still bound, per cent of control (TBK1 (human)): 4.8%; kinase still bound, per cent of control (MST4 (human)): 0.15%; kinase still bound, per cent of control (PLK3 (human)): 39%; kinase still bound, per cent of control (PRKAA1 (human)): 0.2%; kinase still bound, per cent of control [2]: 5%; kinase still bound, per cent of control (EPHB6 (human)): 50%; kinase still bound, per cent of control (DAPK2 (human)): 5.4%; kinase still bound, per cent of control (PAK4 (human)): 1.2%; kinase still bound, per cent of control (PRKD2 (human)): 0.9%; kinase still bound, per cent of control (STK32A (human)): 1%; kinase still bound, per cent of control (CDKL1 (human)): 46%; kinase still bound, per cent of control (CDK3 (human)): 100%; kinase still bound, per cent of control (ICK (human)): 100%; kinase still bound, per cent of control (RIPK2 (human)): 40%; kinase still bound, per cent of control (DCLK3 (human)): 56%; kinase still bound, per cent of control (HIPK3 (human)): 12%; kinase still bound, per cent of control (NEK9 (human)): 80%; kinase still bound, per cent of control (LRRK2 (human)): 4% |
